Data reported in patent US8420819B2, “Process for optimizing the particle size of an active pharmaceutical ingredient by crystallization” (Boehringer Ingelheim International GmbH, priority 2009, dated 2013).

Assays:
[1] = Particle size of co-crystal batches, measured by Sympatec laser light diffraction; type: physicochemical; details: for Particle Size D10: scale-up batches from MEK/heptane crystallization, Sympatec laser light diffraction
[2] = Powder properties (flowability, bulk density) of crystallized particles; type: physicochemical; details: MEK/heptane process compared to particles produced from other solvent systems

## CCS(=O)(=O)c1cc2cc(C[C@](O)(CC(C)(C)c3ccc(F)cc3C(N)=O)C(F)(F)F)[nH]c2cn1.O=P(O)(O)O [2-[(3R)-3-(5-ethanesulfonyl-1H-pyrrolo[2,3-c]pyridin-2-ylmethyl)-4,4,4-trifluoro-3-hydroxy-1,1-dimethylbutyl]-5-fluorobenzamide phosphoric acid co-crystal]
[1]; MEK/heptane, initial concentration approximately 0.11-0.14 g/mL, seeded, high supersaturation
  D90: < 10 μm
[1]; approximately 1.0 wt % water in the solution (between about 0.7% and 1.2%) (FIG. 2)
  D90: 25-30 μm
[1]; crystallization as part of the synthesis, from acetic acid or anisole solvate, 50.0 g, KF <0.2 wt %
  particle size of the product, D90: about 7 μm
[1]; crystallization with 0.1 wt % water (FIG. 1)
  D90: 6 μm
[1]; crystallization with 1.1 wt % water (FIG. 2)
  D90: 26 μm
[1]; crystallization with 2.0 wt % water (FIG. 3)
  D90: 50 μm
[1]; crystallization with <0.5 wt % water in the solution (FIG. 1)
  D90: 5-10 μm
[1]; listed as Kilo lab batch, 1.8 kg, from acetic acid solvate
  Particle Size D10: 1.19 μm
[1]; listed as Lab batch 1 from acetic acid solvate
  Particle Size D10: 1.29 μm
[1]; listed as Lab batch 2 from acetic acid solvate
  Particle Size D10: 1.28 μm
[1]; listed as Lab batch 3 from acetic acid solvate
  Particle Size D10: 1.54 μm
[1]; listed as Lab batch from new synthesis from acetic acid solvate
  Particle Size D10: 1.17 μm
[1]; listed as Lab batch, from anisole solvate
  Particle Size D10: 1.31 μm
[1]; listed as Pilot plant batch A, 11 kg, from anisole solvate
  Particle Size D10: 1.61 μm
[1]; listed as Pilot plant batch B, 22 kg, from anisole solvate
  Particle Size D10: 1.67 μm
[1]; listed as Pilot plant batch, 9 kg, from acetic acid solvate
  Particle Size D10: 1.26 μm
[1]; standalone re-crystallization process, 50.0 g co-crystal, KF ≦0.2 wt %
  particle size of the product, D90: about 7 μm
[2]
  powder properties (flowability, bulk density): excellent powder properties
